Assay results taken from the supplement of paper PMC10307832.

Key:
Experiment in all cases: relative viability (nuclei count vs DMSO), 5 days (fraction); higher = more cells survive
ABC-1 = test system: ABC-1
Procedure, shortened: (§1)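 Relative viability was taken as the ratio of nuclei in treated wells to nuclei in vehicle wells. Lung cancer cell lines in 1536-well plates received compounds by pin tool one day after seeding, either one drug alone or a fixed anchor-drug dose plus five library-drug doses (not always all listed) in √10 steps. Nuclei were counted on 4× images after 5 days of treatment, and values are medians of duplicate plates.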

EMC-BAC-2 = test system: EMC-BAC-2
Procedure, shortened: as §1

LCLC-97TM1 = test system: LCLC-97TM1
Procedure, shortened: as §1

NCI-H1355 = test system: NCI-H1355
Procedure, shortened: as §1

NCI-H1666 = test system: NCI-H1666
Procedure, shortened: as §1

NCI-H1755 = test system: NCI-H1755
Procedure, shortened: as §1

NCI-H1793 = test system: NCI-H1793
Procedure, shortened: as §1

NCI-H1944 = test system: NCI-H1944
Procedure, shortened: as §1

NCI-H1975 = test system: NCI-H1975
Procedure, shortened: as §1

NCI-H1993 = test system: NCI-H1993
Procedure, shortened: as §1

NCI-H2009 = test system: NCI-H2009
Procedure, shortened: as §1

NCI-H2126 = test system: NCI-H2126
Procedure, shortened: as §1

NCI-H2170 = test system: NCI-H2170
Procedure, shortened: as §1

NCI-H2347 = test system: NCI-H2347
Procedure, shortened: as §1

NCI-H441 = test system: NCI-H441
Procedure, shortened: as §1

NCI-H460 = test system: NCI-H460
Procedure, shortened: as §1

NCI-H520 = test system: NCI-H520
Procedure, shortened: as §1

NCI-H647 = test system: NCI-H647
Procedure, shortened: as §1

NCI-H727 = test system: NCI-H727
Procedure, shortened: as §1

PC-14 = test system: PC-14
Procedure, shortened: as §1

PC-3 [JPC-3] = test system: PC-3 [JPC-3]
Procedure, shortened: as §1

SK-LU-1 = test system: SK-LU-1
Procedure, shortened: as §1

SW 1573 = test system: SW 1573
Procedure, shortened: as §1

Cc1cnc(-c2cnc(NCCNc3ccc(C#N)cn3)nc2-c2ccc(Cl)cc2Cl)[nH]1 + Cc1cc(Nc2cc(N3CCN(C)CC3)nc(Sc3ccc(NC(=O)C4CC4)cc3)n2)n[nH]1 [Tozasertib] (partner 0.1 µM)
relative viability (ABC-1; first compound 0.08 µM): 0.213 | relative viability (ABC-1; first compound 0.253 µM): 0.158 | relative viability (ABC-1; first compound 0.8 µM): 0.22 | relative viability (ABC-1; first compound 2.53 µM): 0.221 | relative viability (EMC-BAC-2; first compound 0.08 µM): 0.313 | relative viability (EMC-BAC-2; first compound 0.253 µM): 0.261 | relative viability (EMC-BAC-2; first compound 0.8 µM): 0.252 | relative viability (EMC-BAC-2; first compound 2.53 µM): 0.273 | relative viability (LCLC-97TM1; first compound 0.08 µM): 0.224 | relative viability (LCLC-97TM1; first compound 0.8 µM): 0.171 | relative viability (LCLC-97TM1; first compound 2.53 µM): 0.223 | relative viability (NCI-H1355; first compound 0.08 µM): 0.662 | relative viability (NCI-H1355; first compound 0.253 µM): 0.474 | relative viability (NCI-H1355; first compound 0.8 µM): 0.56 | relative viability (NCI-H1355; first compound 2.53 µM): 0.374 | relative viability (NCI-H1666; first compound 0.08 µM): 0.63 | relative viability (NCI-H1666; first compound 0.253 µM): 0.593 | relative viability (NCI-H1666; first compound 0.8 µM): 0.623 | relative viability (NCI-H1666; first compound 2.53 µM): 0.626 | relative viability (NCI-H1755; first compound 0.08 µM): 0.585 | relative viability (NCI-H1755; first compound 0.253 µM): 0.521 | relative viability (NCI-H1755; first compound 0.8 µM): 0.595 | relative viability (NCI-H1755; first compound 2.53 µM): 0.539 | relative viability (NCI-H1793; first compound 0.08 µM): 0.347 | relative viability (NCI-H1793; first compound 0.253 µM): 0.276 | relative viability (NCI-H1793; first compound 0.8 µM): 0.257 | relative viability (NCI-H1793; first compound 2.53 µM): 0.182 | relative viability (NCI-H1944; first compound 0.08 µM): 0.253 | relative viability (NCI-H1944; first compound 0.8 µM): 0.254 | relative viability (NCI-H1944; first compound 2.53 µM): 0.252 | relative viability (NCI-H1975; first compound 0.08 µM): 0.717 | relative viability (NCI-H1975; first compound 0.253 µM): 0.659 | relative viability (NCI-H1975; first compound 0.8 µM): 0.508 | relative viability (NCI-H1975; first compound 2.53 µM): 0.132 | relative viability (NCI-H1993; first compound 0.08 µM): 0.583 | relative viability (NCI-H1993; first compound 0.253 µM): 0.558 | relative viability (NCI-H1993; first compound 0.8 µM): 0.573 | relative viability (NCI-H1993; first compound 2.53 µM): 0.538 | relative viability (NCI-H2009; first compound 0.08 µM): 0.734 | relative viability (NCI-H2009; first compound 0.253 µM): 0.695 | relative viability (NCI-H2009; first compound 0.8 µM): 0.794 | relative viability (NCI-H2009; first compound 2.53 µM): 0.452 | relative viability (NCI-H2126; first compound 0.08 µM): 1.02 | relative viability (NCI-H2126; first compound 0.253 µM): 0.802 | relative viability (NCI-H2126; first compound 0.8 µM): 0.844 | relative viability (NCI-H2126; first compound 2.53 µM): 0.837 | relative viability (NCI-H2170; first compound 0.08 µM): 0.73 | relative viability (NCI-H2170; first compound 0.253 µM): 0.566 | relative viability (NCI-H2170; first compound 0.8 µM): 0.713 | relative viability (NCI-H2170; first compound 2.53 µM): 0.699 | relative viability (NCI-H2347; first compound 0.08 µM): 0.59 | relative viability (NCI-H2347; first compound 0.253 µM): 0.466 | relative viability (NCI-H2347; first compound 0.8 µM): 0.411 | relative viability (NCI-H2347; first compound 2.53 µM): 0.481 | relative viability (NCI-H441; first compound 0.08 µM): 0.775 | relative viability (NCI-H441; first compound 0.253 µM): 0.654 | relative viability (NCI-H441; first compound 0.8 µM): 0.602 | relative viability (NCI-H441; first compound 2.53 µM): 0.405 | relative viability (NCI-H460; first compound 0.08 µM): 0.48 | relative viability (NCI-H460; first compound 0.253 µM): 0.152 | relative viability (NCI-H460; first compound 0.8 µM): 0.101 | relative viability (NCI-H460; first compound 2.53 µM): 0.137 | relative viability (NCI-H520; first compound 0.08 µM): 0.517 | relative viability (NCI-H520; first compound 0.253 µM): 0.444 | relative viability (NCI-H520; first compound 0.8 µM): 0.397 | relative viability (NCI-H520; first compound 2.53 µM): 0.499 | relative viability (NCI-H647; first compound 0.08 µM): 0.306 | relative viability (NCI-H647; first compound 0.253 µM): 0.163 | relative viability (NCI-H647; first compound 0.8 µM): 0.263 | relative viability (NCI-H647; first compound 2.53 µM): 0.172 | relative viability (NCI-H727; first compound 0.08 µM): 0.639 | relative viability (NCI-H727; first compound 0.253 µM): 0.497 | relative viability (NCI-H727; first compound 0.8 µM): 0.603 | relative viability (NCI-H727; first compound 2.53 µM): 0.422 | relative viability (PC-14; first compound 0.08 µM): 0.611 | relative viability (PC-14; first compound 0.253 µM): 0.47 | relative viability (PC-14; first compound 0.8 µM): 0.551 | relative viability (PC-14; first compound 2.53 µM): 0.549 | relative viability (PC-3 [JPC-3]; first compound 0.08 µM): 0.872 | relative viability (PC-3 [JPC-3]; first compound 0.253 µM): 0.849 | relative viability (PC-3 [JPC-3]; first compound 0.8 µM): 0.819 | relative viability (PC-3 [JPC-3]; first compound 2.53 µM): 0.719 | relative viability (SK-LU-1; first compound 0.08 µM): 0.314 | relative viability (SK-LU-1; first compound 0.253 µM): 0.348 | relative viability (SK-LU-1; first compound 0.8 µM): 0.426 | relative viability (SK-LU-1; first compound 2.53 µM): 0.535 | relative viability (SW 1573; first compound 0.08 µM): 0.177 | relative viability (SW 1573; first compound 0.253 µM): 0.138 | relative viability (SW 1573; first compound 0.8 µM): 0.302 | relative viability (SW 1573; first compound 2.53 µM): 0.156
